Experimental data from article PMC8883573, “New Insights Into the Function of Flavohemoglobin in Mycobacterium tuberculosis: Role as a NADPH-Dependent Disulfide Reductase and D-Lactate-Dependent Mycothione Reductase” (Frontiers in Cellular and Infection Microbiology, 2022).

Molecular target: T1, MtbFHb (Mycobacterium tuberculosis, UniProt Q7ARS9)
T1 construct: gene Rv0385
T1 sequence (Q7ARS9 entry or part of it): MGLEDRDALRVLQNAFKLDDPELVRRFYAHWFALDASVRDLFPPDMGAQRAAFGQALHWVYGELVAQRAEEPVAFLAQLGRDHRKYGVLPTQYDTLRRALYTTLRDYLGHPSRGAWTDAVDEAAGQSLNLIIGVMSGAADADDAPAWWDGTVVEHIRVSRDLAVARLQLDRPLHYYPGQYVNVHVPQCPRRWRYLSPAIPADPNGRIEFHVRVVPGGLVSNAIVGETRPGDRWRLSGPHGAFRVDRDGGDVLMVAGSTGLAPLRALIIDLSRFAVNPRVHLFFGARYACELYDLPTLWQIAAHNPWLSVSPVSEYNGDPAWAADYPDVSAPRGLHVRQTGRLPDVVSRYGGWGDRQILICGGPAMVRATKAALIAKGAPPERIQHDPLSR

C[C@@H](O)C(=O)O [D-lactate]
far-UV circular dichroism (conformational change): These results confirmed a conformational change in MtbFHb during its interaction with D-lactate
